In patent publication US6127543A, “Antimalarial organometallic iron complexes” (Universite des Sciences et Technologies de Lille, priority 1995, dated 2000):
pIC50: −log10 of the molar value. ≈ marks a conversion by molar mass, not a printed value. Like-named read-outs stand apart in the source and are kept apart here.

Legend:
[1] = tested on: P. falciparum line FCM 6 (chloroquinine-resistant); experiment: microbe, parasite or virus in culture; type: cell-based; settings: Plasmodium falciparum, FCM6, chloroquinine-resistant; two experiments, one line each
Description: (§1) The proliferation of the parasites is measured by incorporation of ^3 [H] hypoxanthine applied to the cultures 16 hours before the end of the culture. The radioactive hypoxanthine is absorbed by the developing parasites. The quantity absorbed is measured by a Beta counter in counts per minute.
(§2) Three P. faciparum lines M25, chloroquinine-sensitive, and FCM 6 and FCM 17, chloroquinine-resistant, were cultured at a parasitemia rate approaching 1%, at the trophozoite stage, for a period of 48 hours.

[2] = tested on: P. falciparum line FCM 17 (chloroquinine-resistant); experiment: microbe, parasite or virus in culture; type: cell-based; settings: Plasmodium falciparum, FCM17, chloroquinine-resistant; two experiments, one line each
Description: as §1, §2

[3] = tested on: P. falciparum line M25 (chloroquinine-sensitive); experiment: In vitro activity on established line M25 (48 h culture); type: cell-based; settings: Plasmodium falciparum, two experiments, one line each
Description: as §1, §2

P. berghei, N strain = experiment: In vivo test in mice infected with P. berghei, N strain; settings: for Mortality: female SWISS mice, 4 subcutaneous injections D0-D2
Description: Methodology: the laboratory mice can be infected with various strains of rodent Plasmodium. Female SWISS mice (about 30 g) (5 per group) were inoculated on D0 with […] P. berghei parasites, chloroquinine-sensitive, lethal strain. The mice were treated between D0 and D2 using 4 subcutaneous injections of chloroquinine or of compound SN1, with a total dose of 1 or 10 mg/kg of weight. The parasitemia and mortality were monitored from D3, for at least 40 days.
The compound SN1 and its salt, SN1 ditartrate, were tested.

[4] = tested on: field strains (Francevilloises strains); experiment: In vitro inhibition of parasite proliferation (3[H] hypoxanthine incorporation), field strains; type: cell-based, Plasmodium falciparum
Description: As mentioned above, the in vitro activity of organometallic complexes of the invention was measured on field strains.
as §1

P. yoelii, strain NS = experiment: In vivo test in mice infected with chloroquinine-resistant P. yoelii, strain NS; settings: 10 mg/kg

With CCN(CC)CCCC(C)Nc1ccnc2cc(Cl)ccc12 (centres unmarked) [Chloroquinine] the IC50 [1] was 0.492 µg/mL (≈ 1.54 µM), the IC50 [2] was 0.555 µg/mL (≈ 1.74 µM) and the IC50 [3] was 0.069 µg/mL (≈ 0.216 µM). The Mortality (P. berghei, N strain; Exp 1, total dose 1 mg/kg) was 5/5, the Mortality (P. berghei, N strain; Exp 1, total dose 10 mg/kg) was 5/5 and the Mortality (P. berghei, N strain; Exp 2, total dose 1 mg/kg) was 5/5. For the same compound, the Mortality (P. berghei, N strain; Exp 2, total dose 10 mg/kg) was 5/5, the pIC50 ([4]; Plasmodium falciparum, Strain No. 17) was 6.70 and the pIC50 ([4]; Plasmodium falciparum, Strain No. 265) was less than 6.00. The pIC50 ([4]; Plasmodium falciparum, Strain No. 309) was 6.01, the pIC50 ([4]; Plasmodium falciparum, Strain No. 823) was less than 6.00 and the pIC50 ([4]; Plasmodium falciparum, Strain No. 917) was 6.72. For the same compound, the pIC50 ([4]; Plasmodium falciparum, Strain No. 926) was less than 6.00, the pIC50 ([4]; Plasmodium falciparum, Strain No. 935) was less than 6.00 and the pIC50 ([4]; Plasmodium falciparum, read-out: IC50 (range over strains), Francevilloises strains, 7 strains tested) was 6.00 to 6.72. It also gave a pIC50 ([4]; Plasmodium falciparum, read-out: ID 50, Strain No. 17) of 5.70, a pIC50 ([4]; Plasmodium falciparum, read-out: ID 50, Strain No. 265) of less than 5.00 and a pIC50 ([4]; Plasmodium falciparum, read-out: ID 50, Strain No. 309) of 5.01. The pIC50 ([4]; Plasmodium falciparum, read-out: ID 50, Strain No. 823) was less than 5.00, the pIC50 ([4]; Plasmodium falciparum, read-out: ID 50, Strain No. 917) was 5.72 and the pIC50 ([4]; Plasmodium falciparum, read-out: ID 50, Strain No. 926) was less than 5.00. For the same compound, the pIC50 ([4]; Plasmodium falciparum, read-out: ID 50, Strain No. 935) was less than 5.00, the “chloroquinine-resistance of the strains” value ([4]; in words, Francevilloises strains) was “high chloroquinine-resistance” and the “parasites detected / parasitemia” value (P. yoelii, strain NS) was “high parasitemia”.

CN(C)Cc1ccc[c-]1CNc1ccnc2cc(Cl)ccc12.[Fe+2].c1cc[cH-]c1 (centres unmarked) [SN1] was tested, and the Mortality (P. berghei, N strain; Exp 1, total dose 1 mg/kg) was 5/5, the Mortality (P. berghei, N strain; Exp 1, total dose 10 mg/kg) was 1/5 and the Mortality (P. berghei, N strain; Exp 2, total dose 1 mg/kg) was 5/5. The Mortality (P. berghei, N strain; Exp 2, total dose 10 mg/kg) was 0/5, the “in vivo activity compared with chloroquinine” value (P. berghei, N strain; in words, mice, P. berghei) was “better activity than chloroquinine in vivo” and the pIC50 ([4]; Strain No. 17, read-out: IC50) was 7.70. For the same compound, the pIC50 ([4]; Strain No. 265, read-out: IC50) was 6.77, the pIC50 ([4]; Strain No. 309, read-out: IC50) was 6.96 and the pIC50 ([4]; Strain No. 823, read-out: IC50) was 6.92. It also gave a pIC50 ([4]; Strain No. 917, read-out: IC50) of 8.00, a pIC50 ([4]; Strain No. 926, read-out: IC50) of 6.64 and a pIC50 ([4]; Strain No. 935, read-out: IC50) of 6.92. The “action on the sole chloroquinine-resistant strain tested so far” value ([4]; in words, in vitro) was “marked action” and the “action on the inhibition of parasitemia” value ([4]; in words, in vitro, compared with quinine) was “greater action on the inhibition of parasitemia than quinine”.
